Results: ChEMBL document CHEMBL1201862, “PubChem BioAssay data set” (2004)
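48-hour exposure; five concentrations; linearly interpolated endpoints. GI50: concentration for 50% inhibition of growth.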 Activity calls are given as the source filed them. Rule as the data show it: active = GI50 up to about 1.1 µM and inactive = higher.

What was measured:
Test in all cases: NCI-60 cell line screen, 48 h
[1] = system: MDA-MB-435
[2] = system: OVCAR-4
[3] = system: DU-145
[4] = system: MDA-MB-231
[5] = system: BT-549
[6] = system: NCI-H460
[7] = system: SF-268
[8] = system: NCI-H226
[9] = system: A498
[10] = system: T47D
[11] = system: SF-295
[12] = system: SF-539
[13] = system: OVCAR-8
[14] = system: HOP-92
[15] = system: XF498
[16] = system: DMS-114
[17] = system: SNB-78
[18] = system: DMS-273
[19] = system: HOP-18
[20] = system: Malme-3M

Compound | GI50 [1] | GI50 [2] | GI50 [3] | GI50 [4] | GI50 [5] | GI50 [6] | GI50 [7] | GI50 [8] | GI50 [9] | GI50 [10] | GI50 [11] | GI50 [12] | GI50 [13] | GI50 [14] | GI50 [15] | GI50 [16] | GI50 [17] | GI50 [18] | GI50 [19] | GI50 [20]
COc1nc(Cl)nc(N[C@H](C)c2c3ccccc3cc3ccccc23)n1 | 4.31 µM (inactive) | 3.12 µM (inactive) | 12.4 µM (inactive) | 13.9 µM (inactive) | 18 µM (inactive) | 17 µM (inactive) | 18 µM (inactive) | 13.1 µM (inactive) | < 0.01 µM (active) | 1.99 µM (inactive) | 15.6 µM (inactive) | 17.8 µM (inactive) | 14.8 µM (inactive) | 18.6 µM (inactive) | – | – | – | – | – | –
CCN(CC)CCCNC(=O)c1ccccc1Nc1c(Cl)cccc1Cl | – | 7.31 µM (inactive) | – | – | – | – | 15.5 µM (inactive) | 12.4 µM (inactive) | – | – | – | 11.4 µM (inactive) | 15.7 µM (inactive) | – | 2.26 µM (inactive) | 12.2 µM (inactive) | 15 µM (inactive) | 17.3 µM (inactive) | – | –
Nc1nc(N)nc(-c2ccccc2NS(=O)(=O)c2ccc([N+](=O)[O-])cc2)n1 | – | 44.2 µM (inactive) | – | – | – | 42.9 µM (inactive) | 96.8 µM (inactive) | 61.2 µM (inactive) | > 100 µM (inactive) | – | 99.1 µM (inactive) | > 100 µM (inactive) | 40.1 µM (inactive) | > 100 µM (inactive) | 18.2 µM (inactive) | 25.8 µM (inactive) | > 74.1 µM (inactive) | 55.8 µM (inactive) | > 100 µM (inactive) | > 100 µM (inactive)
COc1ccc2[nH]c(C(=O)N3CC(CCl)c4c3cc(N)c3ccccc43)cc2c1 (stereo not given) | 0.0118 µM (active) | < 0.01 µM (active) | < 0.01 µM (active) | < 0.0204 µM (active) | < 0.0153 µM (active) | < 0.01 µM (active) | < 0.01 µM (active) | < 0.0133 µM (active) | 0.0116 µM (active) | 0.0101 µM (active) | < 0.01 µM (active) | < 0.01 µM (active) | < 0.01 µM (active) | < 0.018 µM (active) | – | – | – | – | – | –
O=C1CN2Cc3cc(N4CCOCC4)ccc3N=C2N1 | 22.9 µM (inactive) | 67.9 µM (inactive) | 49.5 µM (inactive) | 88.1 µM (inactive) | > 100 µM (inactive) | 41.5 µM (inactive) | – | 44.6 µM (inactive) | 91 µM (inactive) | > 100 µM (inactive) | 38.6 µM (inactive) | – | 72.9 µM (inactive) | > 100 µM (inactive) | – | – | – | – | – | 89.1 µM (inactive)
